Reference: patent publication US20070128217A1 (priority 2003, published 2007)

Columns and labels:
[1] = test system: rabbit serum obtained by immunizing a rabbit with the SARS-CoV strain Frankfurt 1; assay type: binding; design: Binding of a rabbit serum to linear peptides / Binding of a rabbit serum to looped peptides / Rabbit serum linear peptides / Rabbit serum looped peptides / Binding of a rabbit serum to linear peptides of protein N of SARS-CoV Urbani (Rabbit serum linear peptides) / Binding of a rabbit serum to looped/cyclic peptides of protein N of SARS-CoV Urbani (Rabbit serum looped peptides): unit not given here
[2] = test system: antibodies in sera from SARS patients (sera 1a, 1b, 2, 6, 37, 62, London, SARS-yellow, SARS-green); assay type: binding, human; design: Binding of serum 6 to linear peptides of protein X1 of SARS-CoV Urbani / Binding of serum 37 to linear peptides of protein X1 of SARS-CoV Urbani / Binding of serum 6 to looped/cyclic peptide (PEPSCAN-ELISA) / Binding of serum 37 to looped/cyclic peptide (PEPSCAN-ELISA) / Binding of serum 37 to looped/cyclic peptides of protein X1 of SARS-CoV Urbani / Binding of serum 6 to linear peptides of protein X2 / Binding of serum 37 to linear peptides of protein X2 / Binding of serum 37 to looped/cyclic peptides of protein X2 of SARS-CoV Urbani / Binding of serum 6 to linear peptides of protein M of SARS-CoV Urbani / Binding of serum 37 to linear peptides of protein M of SARS-CoV Urbani / Binding of serum 6 to looped/cyclic peptides of protein M of SARS-CoV Urbani / Binding of serum 37 to looped/cyclic peptides of protein M of SARS-CoV Urbani / Binding of serum 6 to linear peptides of protein X3 of SARS-CoV Urbani / Binding of serum 37 to linear peptides of protein X3 of SARS-CoV Urbani / Binding of serum 37 to looped/cyclic peptides of protein X3 of SARS-CoV Urbani / Binding of serum 6 to linear peptides of protein X4 of SARS-CoV Urbani / Binding of serum 37 to linear peptides of protein X4 of SARS-CoV Urbani / Binding of serum 37 to looped/cyclic peptides of protein X4 of SARS-CoV Urbani / Binding of serum 6 to linear peptides of protein X5 of SARS-CoV Urbani / Binding of serum 37 to linear peptides of protein X5 of SARS-CoV Urbani / Binding of serum 37 to looped/cyclic peptides of protein X5 of SARS-CoV Urbani / Binding of serum 6 to linear peptides of protein N of SARS-CoV Urbani / Binding of serum 37 to linear peptides of protein N of SARS-CoV Urbani / Binding of serum 6 to linear peptide (PEPSCAN-ELISA) / Binding of serum 1a to looped/cyclic peptides of protein N of SARS-CoV Urbani / Binding of serum 1b to looped/cyclic peptides of protein N of SARS-CoV Urbani / Binding of serum 2 to looped/cyclic peptides of protein N of SARS-CoV Urbani / Binding of serum 6 to looped/cyclic peptides of protein N of SARS-CoV Urbani / Binding of serum 37 to looped/cyclic peptides of protein N of SARS-CoV Urbani / Binding of serum 62 to looped/cyclic peptides of protein N of SARS-CoV Urbani / Binding of serum London to looped/cyclic peptides of protein N of SARS-CoV Urbani / Binding of serum SARS-green to looped/cyclic peptides of protein N of SARS-CoV Urbani: unit not given here
[3] = test system: control sera (pooled serum of ten healthy LUMC hospital workers; commercial negative donor pooled serum from the Dutch bloodbank); assay type: binding, human; design: Binding of Control serum LUMC to linear peptides / Binding of Control serum Blood-bank to linear peptides / Binding of Control serum LUMC to looped peptides / Binding of Control Serum Blood-Bank to Looped peptides / Binding of Control serum LUMC to linear peptides of the protein M of SARS-CoV Urbani / Binding of Control serum Blood-bank to linear peptides of the protein M of SARS-CoV Urbani / Binding of Control serum LUMC to looped peptides of the protein M of SARS-CoV Urbani / Binding of Control Serum Blood-Bank to Looped peptides of the protein M of SARS-CoV Urbani: unit not given here

In the case of LRARSVSPKLFIRQE, the “Recognition of the peptide by the rabbit serum” value [1] is reported as “recognized”, the “Binding of serum 1a to linear peptides of protein X4 of SARS-CoV Urbani” value [2] is reported as 0.7 and the “Binding of serum 1a to looped/cyclic peptides of protein X4 of SARS-CoV Urbani” value [2] is reported as 0.8. For the same sequence, the “Binding of serum 1b to linear peptides of protein X4 of SARS-CoV Urbani” value [2] was 0.6, the “Binding of serum 1b to looped/cyclic peptides of protein X4 of SARS-CoV Urbani” value [2] was 0.6 and the “Binding of serum 2 to linear peptides of protein X4 of SARS-CoV Urbani” value [2] was 0.5. The “Binding of serum 2 to looped/cyclic peptides of protein X4 of SARS-CoV Urbani” value [2] was 0.6, the “Binding of serum 6 to linear peptides of protein X4 of SARS-CoV Urbani” value [2] was 0.8 and the “Binding of serum 6 to looped/cyclic peptides of protein X4 of SARS-CoV Urbani” value [2] was 0.8. For the same sequence, the “Binding of serum 37 to linear peptides of protein X4 of SARS-CoV Urbani” value [2] was 0.7, the “Binding of serum 37 to looped/cyclic peptides of protein X4 of SARS-CoV Urbani” value [2] was 0.7 and the “Binding of serum 62 to linear peptides of protein X4 of SARS-CoV Urbani” value [2] was 0.8. For the same sequence, the “Binding of serum 62 to looped/cyclic peptides of protein X4 of SARS-CoV Urbani” value [2] was 0.7, the “Binding of serum London to linear peptides of protein X4 of SARS-CoV Urbani” value [2] was 0.8 and the “Binding of serum London to looped/cyclic peptides of protein X4 of SARS-CoV Urbani” value [2] was 0.4. For the same sequence, the “Binding of serum SARS-green to linear peptides of protein X4 of SARS-CoV Urbani” value [2] was 0.6, the “Binding of serum SARS-green to looped/cyclic peptides of protein X4 of SARS-CoV Urbani” value [2] was 0.6 and the “Binding of serum SARS-yellow to linear peptides of protein X4 of SARS-CoV Urbani” value [2] was 0.3. The “Binding of serum SARS-yellow to looped/cyclic peptides of protein X4 of SARS-CoV Urbani” value [2] was 0.7, the “Binding of Control Serum Blood-Bank to Looped peptides” value [3] was 0.6 and the “Binding of Control serum Blood-bank to linear peptides” value [3] was 0.6. The “Binding of Control serum LUMC to linear peptides” value [3] was 0.6 and the “Binding of Control serum LUMC to looped peptides” value [3] was 0.7.

LRGTIVTRPLMESEL was tested, and the “Rabbit serum linear peptides” value [1] was 0.0, the “Rabbit serum looped peptides” value [1] was 0.5 and the “Binding of serum 1a to linear peptides of protein M of SARS-CoV Urbani” value [2] was 0.7. For the same sequence, the “Binding of serum 1b to linear peptides of protein M of SARS-CoV Urbani” value [2] was 0.5, the “Binding of serum 2 to linear peptides of protein M of SARS-CoV Urbani” value [2] was 0.3 and the “Binding of serum 6 to linear peptides of protein M of SARS-CoV Urbani” value [2] was 0.3. For the same sequence, the “Binding of serum 37 to linear peptides of protein M of SARS-CoV Urbani” value [2] was 0.5, the “Binding of serum 62 to linear peptides of protein M of SARS-CoV Urbani” value [2] was 0.4 and the “Binding of serum London to linear peptides of protein M of SARS-CoV Urbani” value [2] was 0.3. For the same sequence, the “Binding of serum SARS-green to linear peptides of protein M of SARS-CoV Urbani” value [2] was 0.4, the “Binding of serum SARS-yellow to linear peptides of protein M of SARS-CoV Urbani” value [2] was 1.0 and the “Recognition of the peptide by sera of SARS-CoV infected individuals, and form (linear, looped/cyclic) in which it is recognized” value [2] was “recognized in looped/cyclic form”. The “Binding of Control Serum Blood-Bank to Looped peptides of the protein M of SARS-CoV Urbani” value [3] was 0.7, the “Binding of Control serum Blood-bank to linear peptides of the protein M of SARS-CoV Urbani” value [3] was 0.5 and the “Binding of Control serum LUMC to linear peptides of the protein M of SARS-CoV Urbani” value [3] was 0.5. For the same sequence, the “Binding of Control serum LUMC to looped peptides of the protein M of SARS-CoV Urbani” value [3] was 0.7.

For LSLHKLLQTLVLKML, the “Binding of a rabbit serum to linear peptides” value [1] was 0.3, the “Binding of a rabbit serum to looped peptides” value [1] was 0.5 and the “Binding of serum 1a to linear peptides of protein X2” value [2] was 0.7. For the same sequence, the “Binding of serum 1a to looped/cyclic peptides of protein X2 of SARS-CoV Urbani” value [2] was 0.5, the “Binding of serum 1b to linear peptides of protein X2” value [2] was 0.4 and the “Binding of serum 1b to looped/cyclic peptides of protein X2 of SARS-CoV Urbani” value [2] was 0.4. For the same sequence, the “Binding of serum 2 to linear peptides of protein X2” value [2] was 0.3, the “Binding of serum 2 to looped/cyclic peptides of protein X2 of SARS-CoV Urbani” value [2] was 0.3 and the “Binding of serum 6 to linear peptides of protein X2” value [2] was 0.3. The “Binding of serum 6 to looped/cyclic peptides of protein X2 of SARS-CoV Urbani” value [2] was 0.6, the “Binding of serum 37 to linear peptides of protein X2” value [2] was 0.4 and the “Binding of serum 37 to looped/cyclic peptides of protein X2 of SARS-CoV Urbani” value [2] was 0.4. For the same sequence, the “Binding of serum 62 to linear peptides of protein X2” value [2] was 0.5, the “Binding of serum 62 to looped/cyclic peptides of protein X2 of SARS-CoV Urbani” value [2] was 0.6 and the “Binding of serum London to linear peptides of protein X2” value [2] was 0.4. For the same sequence, the “Binding of serum London to looped/cyclic peptides of protein X2 of SARS-CoV Urbani” value [2] was 1.3, the “Binding of serum SARS-green to linear peptides of protein X2” value [2] was 0.4 and the “Binding of serum SARS-green to looped/cyclic peptides of protein X2 of SARS-CoV Urbani” value [2] was 0.2. For the same sequence, the “Binding of serum SARS-yellow to linear peptides of protein X2” value [2] was 0.2, the “Binding of serum SARS-yellow to looped/cyclic peptides of protein X2 of SARS-CoV Urbani” value [2] was 0.6 and the “Binding of Control Serum Blood-Bank to Looped peptides” value [3] was 0.6. For the same sequence, the “Binding of Control serum Blood-bank to linear peptides” value [3] was 0.5, the “Binding of Control serum LUMC to linear peptides” value [3] was 0.2 and the “Binding of Control serum LUMC to looped peptides” value [3] was 0.7.
